The values that follow come from PubChem BioAssay AID540271 (Broad Institute, 2011).

Calls of active or inactive are those of the source. No rule for the calls is given here.

For the assay, the system named is S. cerevisiae expressing PfHSP40, growth rescue, plate reader. The experiment in a line: Yeast growth rescue from Plasmodium falciparum HSP40 toxicity, dose response confirmatory, plate reader (AID 540271).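 Also: yeast growth read after three days of incubation at 30 °C.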
On to `O=C(CSc1ccc(-c2ccccn2)nn1)NC1CCCC1`, for which the AC50 was 11.1 µM.
In the case of `COc1ccc(CNc2ncnc3sccc23)cc1`, the AC50 is 4.38 µM.
The same measure for `COC(=O)C1=NN(C(=O)c2cccc(Br)c2)C(O)(c2ccc(Cl)cc2)C1` (stereo not given): 5.82 µM; for `O=C(c1ccccc1)c1ccc(Cn2cc(-c3ccccc3)nn2)cc1`: 4.34 µM.
Take `Cc1ccc(Nc2cc(C)nn2-c2nc(C)cc(C)n2)cc1`: the AC50 is 3.95 µM.
Take `COc1cccc2c1C(=O)c1c(O)c3c(c(O)c1C2=O)C[C@@](O)(C(=O)CO)C[C@@H]3O[C@H]1C[C@H](N)[C@H](O)[C@H](C)O1`: the AC50 was 6.48 µM.
With `COC(=O)/C=C\C(=O)Nc1cccc([N+](=O)[O-])c1` the figure was 1.83 µM; with `CCOC(=O)c1cnc(-n2nc(C)cc2C)nc1NC1CCCC1`, 7.65 µM; with `O=c1c2ccccc2c(-c2ccc(O)cc2)nn1-c1cccc(C(F)(F)F)c1`, 3.92 µM.
`Cc1c(C(=O)NCCSCc2cccc(C(F)(F)F)c2)cnn1-c1ccc(Cl)cc1`: the AC50 is 6.1 µM.
With `Cc1[nH]n(-c2ccccc2)c(=O)c1/C=N/Nc1nncc(-c2ccccc2)n1` the figure was 7.15 µM; with `O=Nc1c(O)c2ccccc2c2ccccc12`, 0.902 µM.
The same measure for `O=C(O)CSc1nc(-c2ccc(Cl)cc2)nc2c1oc1ccccc12`: 6.02 µM; for `O=C(N/N=C(\c1ccccc1)c1cccnc1)c1cccc(F)c1`: 4.97 µM.
As to `Cc1ccc(NS(=O)(=O)c2ccc(N3CCN(c4ccc(O)cc4)CC3)c([N+](=O)[O-])c2)c(C)c1`, the AC50 was 7.43 µM.
`Cc1ccc(NC(=O)c2cc(N3C(=O)C=CC3=O)ccc2Cl)cc1C`: the AC50 is 1.63 µM.
For the molecule `O=C(c1ccc(-c2ccccc2)cc1)C1CCCN(C(=O)c2cncs2)C1` (stereo not given), the concentration at half-maximal activity (AC50) was 5.93 µM.
With `CC(C)CSc1n[nH]c(=S)s1` the figure was 6.48 µM.
For the molecule `Oc1ccc(-c2nc3ccccc3s2)c(O)c1`, the concentration at half-maximal activity (AC50) was 7.43 µM.
The same measure for `CC(C)(C)C(=O)C(Cl)C(=O)Nc1ccccc1` (stereo not given): 5.65 µM.
With `CCc1ccc(NC(=O)CSc2ccc(-c3ccccn3)nn2)cc1` the figure was 2.44 µM; with `O=[N+]([O-])c1cc(Cl)cc(/C=N/NC(=S)Nc2ccc(S(=O)(=O)N3CCOCC3)cc2)c1O`, 3.13 µM.
With `Clc1ccccc1CN(Cc1ccco1)Cc1nnnn1C1CCCC1` the figure was 5.17 µM.
Turning to `CCn1c2ccc(C)cc2c2nc3cc(C(=O)O)ccc3nc21`, the AC50 is 2.57 µM.
With `Cc1ccc(S(=O)(=O)Nc2ccc(O)c3cccnc23)cc1` the figure was > 12 µM (inactive); with `CCc1cc(C(=O)Nc2nc(-c3ccccn3)cs2)sc1C`, 4.3 µM.
Regarding `CC1(S(=O)(=O)O)CC(=O)c2ccccc2C1=O` (stereo not given), the AC50 was > 12 µM (inactive).
As to `Cc1ccc(Sc2ccc(NC(=O)CCl)cc2)cc1C`, the AC50 was 4.54 µM.
Take `OCCN(CCO)c1cc2c3ccccc3ccc2c2ccccc12`: the AC50 is 5.56 µM.
The same measure for `O=[N+]([O-])c1cccc(-c2cc(-c3cc(Br)ccc3O)[nH]n2)c1`: 5.44 µM.
Take `CCCn1c(=O)c(C(=O)NCc2ccc(OC)c(OC)c2)c(O)c2ccccc21`: the AC50 was 2.32 µM.
For the molecule `CC[n+]1c(/C=C/C=C/c2ccc(N(C)C)cc2)sc2ccccc21`, the AC50 is 3.71 µM.
With `Cc1ccc(-c2c3c(nc4sc(C(N)=O)c(N)c24)CCCC3)o1` the figure was 6.13 µM.
Regarding `COc1cnc(-c2ccccn2)nc1Sc1ccc(C)cc1`, the AC50 was 5.97 µM.
With `Oc1c(CN2CCCC2)cc(COCc2ccccc2)c2cccnc12` the figure was 5.55 µM; with `Nc1c(Cl)ncnc1N/N=C/c1ccc2ccccc2n1`, 5.36 µM.
On to `O=C(NNC(=O)c1cc(Cl)ccc1O)c1ccc(NS(=O)(=O)c2cccs2)cc1`, for which the AC50 was 5.61 µM.
The same measure for `CC12CC3(C)CC(C)(C1)CC(NC(=O)N1CCCC1)(C2)C3`: 1.7 µM; for `Cc1cc(Nc2ccccc2)nn1C(=O)c1ccccc1`: 5.94 µM; for `CCCOc1ccc(C(=O)NNC(=S)NC(=O)CC)cc1`: 6.95 µM.
